According to patent publication US11339130B1 (Blade Therapeutics, Inc., priority 2016, dated 2022):
Where two headings read alike, the source gives them in different places.

Legend:
Human Calpain 9/NS1 = molecular target: T1, Human Calpain 9/NS1 (Homo sapiens, UniProt O14815); experiment: Calpain inhibition continuous fluorescence (FRET) assay, Human Calpain 9/NS1; assay type: biochemical; conditions: read-out: Human Calpain 9/NS1 IC50
T1 sequence (O14815 1-690): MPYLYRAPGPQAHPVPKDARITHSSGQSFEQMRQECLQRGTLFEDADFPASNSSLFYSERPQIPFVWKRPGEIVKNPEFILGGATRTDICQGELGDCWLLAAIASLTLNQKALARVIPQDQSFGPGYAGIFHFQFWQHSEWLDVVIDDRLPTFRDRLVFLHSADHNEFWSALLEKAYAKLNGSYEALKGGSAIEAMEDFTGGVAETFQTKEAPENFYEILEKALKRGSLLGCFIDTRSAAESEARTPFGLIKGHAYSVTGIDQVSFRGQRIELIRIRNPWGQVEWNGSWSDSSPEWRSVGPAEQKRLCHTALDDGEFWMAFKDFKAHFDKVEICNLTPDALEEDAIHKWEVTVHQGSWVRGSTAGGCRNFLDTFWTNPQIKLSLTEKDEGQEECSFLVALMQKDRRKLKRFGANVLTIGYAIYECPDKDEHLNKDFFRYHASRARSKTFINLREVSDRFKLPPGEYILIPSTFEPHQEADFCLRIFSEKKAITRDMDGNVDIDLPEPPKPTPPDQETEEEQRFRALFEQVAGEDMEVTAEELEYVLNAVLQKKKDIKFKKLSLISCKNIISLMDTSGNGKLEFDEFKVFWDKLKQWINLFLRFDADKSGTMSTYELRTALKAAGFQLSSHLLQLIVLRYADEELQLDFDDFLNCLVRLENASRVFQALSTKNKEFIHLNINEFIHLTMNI
T1 sequence (P04632 1-268 partner): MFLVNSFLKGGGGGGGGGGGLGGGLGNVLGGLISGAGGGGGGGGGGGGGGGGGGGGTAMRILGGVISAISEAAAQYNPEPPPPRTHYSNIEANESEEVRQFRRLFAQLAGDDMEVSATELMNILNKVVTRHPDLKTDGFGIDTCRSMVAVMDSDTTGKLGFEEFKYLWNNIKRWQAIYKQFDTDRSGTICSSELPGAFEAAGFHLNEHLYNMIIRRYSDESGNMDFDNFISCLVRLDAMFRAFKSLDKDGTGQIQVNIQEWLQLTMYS
Method in brief: (§1)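 Human calpains 1, 2 and 9 preincubated with inhibitor at 25 °C in 50 mM Tris pH 7.5, 100 mM NaCl, 1 mM DTT; reaction started with 5-FAM/QXL 520 FRET peptide plus CaCl2 for activation. Fluorescence (490/520 nm) followed 10 min; rates from 1-5 min slopes fitted to 4-parameter logistic for IC50.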

[1] = tested on: Calpain activity in SH-SY5Y cells (SBDP-150); experiment: SH-SY5Y Spectrin western blot assay (SBDP-150 breakdown product, A23187-induced); assay type: cell-based; conditions: Homo sapiens, read-out: SH-SY5Y Spectrin IC50
[2] = tested on: Calpain activity in SH-SY5Y cells; experiment: SH-SY5Y + AMC fluorescence assay (Suc-LLVY-AMC substrate); assay type: cell-based
Human Calpain 1/NS1 = molecular target: T2, Human Calpain 1/NS1 (Homo sapiens, UniProt P07384); experiment: Calpain inhibition continuous fluorescence (FRET) assay, Human Calpain 1/NS1; assay type: biochemical; conditions: read-out: Human Calpain 1/NS1 IC50
T2 sequence (P07384 1-714): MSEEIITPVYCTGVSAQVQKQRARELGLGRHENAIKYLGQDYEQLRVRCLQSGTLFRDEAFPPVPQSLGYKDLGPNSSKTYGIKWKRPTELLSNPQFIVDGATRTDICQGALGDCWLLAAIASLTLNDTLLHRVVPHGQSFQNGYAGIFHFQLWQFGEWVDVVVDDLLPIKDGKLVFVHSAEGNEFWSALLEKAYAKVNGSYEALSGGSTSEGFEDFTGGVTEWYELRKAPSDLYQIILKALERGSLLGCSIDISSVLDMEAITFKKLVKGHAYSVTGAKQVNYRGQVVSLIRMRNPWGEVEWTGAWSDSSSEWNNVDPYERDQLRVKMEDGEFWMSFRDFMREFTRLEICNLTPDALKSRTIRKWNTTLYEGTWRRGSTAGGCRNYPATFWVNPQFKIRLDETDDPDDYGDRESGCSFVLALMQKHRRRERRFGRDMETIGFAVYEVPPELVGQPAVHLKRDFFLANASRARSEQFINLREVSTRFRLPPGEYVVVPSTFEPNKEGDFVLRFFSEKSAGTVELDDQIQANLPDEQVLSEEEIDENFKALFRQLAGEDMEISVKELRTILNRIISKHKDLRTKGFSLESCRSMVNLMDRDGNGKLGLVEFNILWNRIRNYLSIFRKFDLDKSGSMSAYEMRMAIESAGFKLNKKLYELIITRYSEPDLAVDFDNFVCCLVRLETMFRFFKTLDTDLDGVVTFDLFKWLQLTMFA
T2 sequence (P04632 1-268 partner): T1 sequence (P04632 1-268 partner)
Method in brief: as §1

Human Calpain 2/NS1 = molecular target: T3, Human Calpain 2/NS1 (Homo sapiens, UniProt P17655); experiment: Calpain inhibition continuous fluorescence (FRET) assay, Human Calpain 2/NS1; assay type: biochemical; conditions: read-out: Human Calpain 2/NS1 IC50
T3 sequence (P17655 1-700): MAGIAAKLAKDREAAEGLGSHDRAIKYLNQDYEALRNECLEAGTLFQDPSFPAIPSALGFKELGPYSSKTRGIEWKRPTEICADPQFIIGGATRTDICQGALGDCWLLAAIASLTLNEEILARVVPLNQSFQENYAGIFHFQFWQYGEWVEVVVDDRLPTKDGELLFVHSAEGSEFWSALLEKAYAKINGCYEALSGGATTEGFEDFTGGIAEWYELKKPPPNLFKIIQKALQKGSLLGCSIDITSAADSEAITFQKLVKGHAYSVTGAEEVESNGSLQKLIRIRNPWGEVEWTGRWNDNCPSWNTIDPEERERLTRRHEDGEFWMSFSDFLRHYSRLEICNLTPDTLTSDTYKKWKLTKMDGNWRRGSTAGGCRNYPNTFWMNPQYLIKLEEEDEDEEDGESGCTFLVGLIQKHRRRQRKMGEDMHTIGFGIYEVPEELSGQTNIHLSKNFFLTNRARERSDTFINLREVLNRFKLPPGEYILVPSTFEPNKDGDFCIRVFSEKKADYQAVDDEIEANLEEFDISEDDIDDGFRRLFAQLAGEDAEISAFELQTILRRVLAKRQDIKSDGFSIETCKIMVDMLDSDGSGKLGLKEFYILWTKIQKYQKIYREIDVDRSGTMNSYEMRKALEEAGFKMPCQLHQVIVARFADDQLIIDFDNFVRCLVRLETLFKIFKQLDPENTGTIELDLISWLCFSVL
T3 sequence (P04632 1-268 partner): T1 sequence (P04632 1-268 partner)
Method in brief: as §1

[3] = Column D, SH-SY5Y cells, A23187-induced SBDP-150
[4] = Column E, read-out: SH-SY5Y + AMC IC50
[5] = SH-SY5Y cells, A23187-induced SBDP-150, western blot
[6] = read-out: SH-SY5Y + AMC IC50, Column E

Row | IC50 (Human Calpain 9/NS1; Column C) [µM] | IC50 [1, 3] [µM] | IC50 [2, 4] [µM] | IC50 (Human Calpain 1/NS1; Column A) [µM] | IC50 (Human Calpain 2/NS1; Column B) [µM] | IC50 (Human Calpain 9/NS1) [µM] | IC50 [1, 5] [µM] | IC50 ([2]; read-out: SH-SY5Y + AMC IC50) [µM] | IC50 (Human Calpain 1/NS1) [µM] | IC50 (Human Calpain 2/NS1) [µM] | SMILES | IC50 ([1]; SH-SY5Y) [µM] | IC50 [2, 6] [µM]
1 | – | – | – | – | – | < 3 | < 10 | < 10 | < 3 | < 3 | NC(=O)C(=O)C(Cc1ccccc1)NC(=O)c1nsnc1-c1cccc2c1OCO2 (stereo not shown) [Compound 367, N-(4-amino-3,4-dioxo-1-phenylbutan-2-yl)-4-(benzo[d][1,3]dioxol-4-yl)-1,2,5-thiadiazole-3-carboxamide] | – | –
2 | – | – | – | – | – | < 3 | < 10 | < 10 | < 3 | < 3 | NC(=O)C(=O)C(Cc1ccccc1)NC(=O)c1cn(C(F)F)nc1-c1cccc2ncccc12 (stereo not shown) [Compound 576, N-(4-amino-3,4-dioxo-1-phenylbutan-2-yl)-1-(difluoromethyl)-3-(quinolin-5-yl)-1H-pyrazole-4-carboxamide] | – | –
3 | – | – | – | – | – | < 3 | > 25 | > 25 | < 3 | < 3 | Cn1cc(C(=O)NC(Cc2ccccc2)C(=O)C(N)=O)c(-c2cncc3ccccc23)n1 (stereo not shown) [Compound 591, N-(4-amino-3,4-dioxo-1-phenylbutan-2-yl)-3-(isoquinolin-4-yl)-1-methyl-1 h-pyrazole-4-carboxamide] | – | –
4 | < 3 | 10 to 25 | < 10 | < 3 | < 3 | – | – | – | – | – | NC(=O)C(=O)[C@H](Cc1ccccc1)NC(=O)c1sc(C2CC2)nc1-c1ccccc1 [Compound 207, (S)—N-(4-amino-3,4-dioxo-1-phenylbutan-2-yl)-2-cyclopropyl-4-phenylthiazole-5-carboxamide] | – | –
5 | – | – | – | – | – | < 3 | > 25 | < 10 | < 3 | < 3 | Cc1ccc(F)c(-c2oncc2C(=O)NC(Cc2ccccc2)C(=O)C(N)=O)c1 (stereo not shown) [Compound 549, N-(4-amino-3,4-dioxo-1-phenylbutan-2-yl)-5-(2-fluoro-5-methylphenyl)isoxazole-4-carboxamide] | – | –
6 | – | – | – | – | – | < 3 | 10 to 25 | 10 to 25 | < 3 | < 3 | Cc1cccc(-c2nn(C)cc2C(=O)NC(Cc2ccccc2)C(=O)C(N)=O)c1F (stereo not shown) [Compound 517, N-(4-amino-3,4-dioxo-1-phenylbutan-2-yl)-3-(2-fluoro-3-methylphenyl)-1-methyl-1H-pyrazole-4-carboxamide] | – | –
7 | < 3 | 10 to 25 | > 25 | < 3 | < 3 | – | – | – | – | – | Cc1cc(C(=O)N[C@@H](Cc2ccccc2)C(=O)C(N)=O)n(-c2ccc(-c3ccccc3C)cc2)n1 [Compound 202, (S)—N-(4-amino-3,4-dioxo-1-phenylbutan-2-yl)-3-methyl-1-(2′-methyl-[1,1′-biphenyl]-4-yl)-1H-pyrazole-5-carboxamide] | – | –
8 | – | – | – | – | – | < 3 | > 25 | < 10 | < 3 | < 3 | Cn1cc(C(=O)NC(Cc2ccccc2)C(=O)C(N)=O)c(-c2cccc3c2OCO3)n1 (stereo not shown) [Compound 514, N-(4-amino-3,4-dioxo-1-phenylbutan-2-yl)-3-(benzo[d][1,3]dioxol-4-yl)-1-methyl-1H-pyrazole-4-carboxamide] | – | –

More lines, now with the values behind:

Row | SMILES | IC50 (Human Calpain 9/NS1; Column C) [µM] | IC50 [1, 3] [µM] | IC50 [2, 4] [µM] | IC50 (Human Calpain 1/NS1; Column A) [µM] | IC50 (Human Calpain 2/NS1; Column B) [µM] | IC50 (Human Calpain 9/NS1) [µM] | IC50 [1, 5] [µM] | IC50 ([2]; read-out: SH-SY5Y + AMC IC50) [µM] | IC50 (Human Calpain 1/NS1) [µM] | IC50 (Human Calpain 2/NS1) [µM] | IC50 ([1]; SH-SY5Y) [µM] | IC50 [2, 6] [µM]
9 | Cc1cc(C(=O)N[C@@H](Cc2ccccc2)C(=O)C(N)=O)n(-c2cccc(-c3cccc(F)c3)c2)n1 [Compound 106, (S)—N-(4-amino-3,4-dioxo-1-phenylbutan-2-yl)-1-(3′-fluoro-[1,1′-biphenyl]-3-yl)-3-methyl-1H-pyrazole-5-carboxamide] | < 3 | < 10 | > 25 | < 3 | < 3 | – | – | – | – | – | – | –
10 | NC(=O)C(=O)C(Cc1ccccc1)NC(=O)c1cc(C(F)(F)F)nn1-c1ncccn1 (stereo not shown) [Compound 349, N-(4-amino-3,4-dioxo-1-phenylbutan-2-yl)-1-(pyrimidin-2-yl)-3-(trifluoromethyl)-1H-pyrazole-5-carboxamide] | – | – | – | – | – | < 3 | > 25 | < 10 | < 3 | < 3 | – | –
11 | NC(=O)C(=O)C(Cc1ccccc1)NC(=O)c1cn(C(F)F)nc1-c1cnccn1 (stereo not shown) [Compound 581, N-(4-amino-3,4-dioxo-1-phenylbutan-2-yl)-1-(difluoromethyl)-3-(pyrazin-2-yl)-1H-pyrazole-4-carboxamide] | – | – | – | – | – | < 3 | > 25 | 10 to 25 | < 3 | < 3 | – | –
12 | CCOC(=O)NCc1cccc(-n2nc(C)cc2C(=O)N[C@@H](Cc2ccccc2)C(=O)C(N)=O)c1 [Compound 147, Ethyl (S)-(3-(5-((4-amino-3,4-dioxo-1-phenylbutan-2-yl)carbamoyl)-3-methyl-1H-pyrazol-1-yl)benzyl)carbamate] | < 3 | – | – | < 3 | < 3 | – | – | – | – | – | 10 to 25 | 10 to 25
13 | Cc1cc(C(=O)N[C@@H](Cc2ccccc2)C(=O)C(N)=O)n(-c2ccc(CNC(=O)OCc3ccccc3)cc2)n1 [Compound 153, Benzyl (S)-(4-(5-((4-amino-3,4-dioxo-1-phenylbutan-2-yl)carbamoyl)-3-methyl-1H-pyrazol-1-yl)benzyl)carbamate] | < 3 | – | – | < 3 | < 3 | – | – | – | – | – | < 10 | > 25
14 | Cc1cc(C(=O)NC(Cc2ccccc2)C(=O)C(=O)NC2CC2)n(-c2ncccn2)n1 (stereo not shown) [Compound 455, N-(4-(cyclopropylamino)-3,4-dioxo-1-phenylbutan-2-yl)-3-methyl-1-(pyrimidin-2-yl)-1H-pyrazole-5-carboxamide] | – | – | – | – | – | > 10 | > 25 | < 10 | 3 to 10 | < 3 | – | –
